ChEMBL document CHEMBL1142484, “Design and synthesis of sulfoximine based inhibitors for HIV-1 protease” (Bioorg Med Chem Lett, 2008)

Target: Protease (Human immunodeficiency virus 1, UniProt Q9YQ12)
Assay: Inhibition of HIV1 protease

Protease, sequence (Q9YQ12 whole entry): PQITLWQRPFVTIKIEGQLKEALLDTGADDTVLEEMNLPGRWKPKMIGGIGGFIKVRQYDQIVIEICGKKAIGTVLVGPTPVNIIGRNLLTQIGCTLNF

Row | IC50 [µM] | Compound
1 | 0.0006 | O=C(N[C@H]1c2ccccc2C[C@H]1O)[C@H](Cc1ccccc1)CC(O)C[C@@H](Cc1ccccc1)C(=O)N[C@H]1c2ccccc2C[C@H]1O
2 | 100 | CC(C)(C)NC(=O)[C@H]1CN(Cc2cccnc2)CCN1C[S+](=N)([O-])C[C@H](Cc1ccccc1)C(=O)N[C@@H]1c2ccccc2C[C@@H]1O (stereo partly drawn)
3 | 100 | CC(C)(C)NC(=O)C1CN(Cc2cccnc2)CCN1C[S+]([O-])C[C@H](Cc1ccccc1)C(=O)NC1c2ccccc2CC1O (single isomer, unassigned)
